Source: ChEMBL document CHEMBL4665649, “Resistance mechanisms and cross-resistance for a pyridine-pyrimidine amide inhibitor of microtubule polymerization” (Bioorg Med Chem Lett, 2019)
pEC50: −log10 of the molar value. Active and inactive are the calls of the source. No cut-off for these calls is given here.

Assays:
A2780 [1] = test: Antiproliferative activity against D4-9-31 resistance human A2780 cells incubated for 72 hrs by ATPlite reagent based assay; assay type: functional, cell-based; conditions: A2780, 72 h
A2780 [2] = test: Antiproliferative activity against human A2780 cells assessed as reduction in mitochondrial respiration; assay type: functional, cell-based
A2780 [3] = test: Antiproliferative activity against human A2780 cells incubated for 72 hrs by live-cell imaging based assay; assay type: functional; conditions: A2780, 72 h
A2780 [4] = test: Antiproliferative activity against D4-9-31 resistance human A2780 cells assessed as reduction in mitochondrial respiration; assay type: functional, cell-based
A2780 [5] = test: Antiproliferative activity against human A2780 cells incubated for 72 hrs by ATPlite reagent based assay; assay type: functional, cell-based; conditions: A2780, 72 h

| SMILES | pEC50 (A2780 [1]) | Activity (A2780 [2]) | pEC50 (A2780 [3]) | Activity (A2780 [4]) | pEC50 (A2780 [5]) |
| --- | --- | --- | --- | --- | --- |
| Cc1ncc(C(=O)Nc2ccc(-c3cccc(S(=O)(=O)C4CC4)c3)cn2)cn1 | 7.64 | Active | 7.92 | Active | 8.00 |
| COc1cc2c(c(OC)c1OC)-c1ccc(OC)c(=O)cc1[C@@H](NC(C)=O)CC2 [COLCHICINE] | 8.06 |  |  |  | 8.04 |
| CC[C@]1(O)C[C@H]2CN(CCc3c([nH]c4ccccc34)[C@@](C(=O)OC)(c3cc4c(cc3OC)N(C=O)[C@H]3[C@@](O)(C(=O)OC)[C@H](OC(C)=O)[C@]5(CC)C=CCN6CC[C@]43[C@@H]65)C2)C1 [VINCRISTINE] | 8.41 |  |  |  | 8.47 |
| C/C(=C\c1csc(C)n1)[C@@H]1C[C@@H]2O[C@]2(C)CCC[C@H](C)[C@H](O)[C@@H](C)C(=O)C(C)(C)[C@@H](O)CC(=O)O1 [PATUPILONE] | 8.40 |  |  |  | 8.28 |
| CC(=O)O[C@H]1C(=O)[C@@]2(C)[C@H]([C@H](OC(=O)c3ccccc3)[C@]3(O)C[C@H](OC(=O)[C@H](O)[C@@H](NC(=O)c4ccccc4)c4ccccc4)C(C)=C1C3(C)C)[C@]1(OC(C)=O)CO[C@@H]1C[C@@H]2O [PACLITAXEL] | 8.62 |  |  |  | 8.60 |
| O=C(Nc1ccncc1)C(=O)c1cn(Cc2ccc(Cl)cc2)c2ccccc12 [INDIBULIN] | 7.70 |  |  |  | 7.72 |
